Reference: patent US20190211020A1 (Agency for Science, Technology and Research, priority 2012, published 2019)
Like-named read-outs stand apart in the source and are kept apart here.

What was measured:
[1] = tested on: phospho-eIF4E S209 in BC-CML primary cells; experiment: Immunofluorescence of phospho-eIF4E in BC-CML primary cells; type: cell-based, human; settings: 48 h
From the text: (§1) Cord Blood (CB) samples were purchased from the Singapore Cord Blood bank. CML samples were the Singapore General Hospital after signed informed consent under local IRB-approved procedures. MNCs were obtained using Ficoll separation, and CD34^+ cells selected by immunomagnetic beads (Miltenyi Biotech, Germany).
Cells (1×10^5) were cytospun onto glass slides, fixed with 4% paraformaldehye, and stained with mouse monoclonal antibodies against activated β-catenin (clone 8E7, Millipore, UK), or rabbit monoclonal antibodies against phospho-eIF4E S209 (EP2151Y, Abcam, UK). Slides were then stained with either PE-conjugated anti-mouse or FITC-conjugated anti-rabbit antibodies. Images were obtained with the use of a fluorescence microscope (Olympus IX71S1F3) at 40× magnification.

[2] = tested on: eIF4E phosphorylation in K562 cells; experiment: Western blot of eIF4E phosphorylation in K562 cells; type: cell-based; settings: various concentrations, 24 h
Description: K562 cell line was obtained from the ATCC, and grown in RPMI supplemented with 10% FCS, L-glutamine, and penicillin/streptomycin.
Exponentially growing cells were plated at 2×10^5 cells/ml, and whole cell lysate processed for western blot analysis using antibodies recognizing eIF4E, phospho-eIF4E (Cell signaling Technology),

CD34+ BC cells = experiment: Serial replating assay, CD34+ BC-CML cells; type: cell-based, human; settings: for serial replating efficiency of CD34+ BC cells compared to DMSO: increasing dose, 48 hr treatment, three replatings (>8 weeks)
From the text: as §1
CD34-enriched CB and BC cells were thawed and allowed to recover overnight in serum-free StemPro media (Invitrogen, Carlsbad, Calif.), supplemented with human growth factors and 1× nutrient supplement (Invitrogen). Cells were then subjected to drug treatment for 48 hr, harvested, washed, and seeded in methycellulose (H4434, […] Technologies, Canada). Colonies were enumerated after 2 weeks, individually picked, and replated in fresh methylcellulose in a 96-well format, and counted at 2 weeks. Three rounds of serial replating (representing >8 weeks in culture) were performed.

[3] = tested on: eIF4E Ser209 phosphorylation in Hela cells; experiment: MNK cell-based assay (AlphaScreen SureFire, eIF4E Ser209 phosphorylation); settings: Homo sapiens, read-out: IC50 Hela
How it was run: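 Hela cells (30,000/well) exposed to test compound in serum-free medium for 2 h at 37 °C, then lysed. Phospho-Ser209 eIF4E quantified by AlphaScreen SureFire; IC50 obtained by non-linear regression of signal versus log compound concentration.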

MNK2 = target: T1, MNK2 (Homo sapiens, UniProt Q9HBH9); experiment: In vitro MNK kinase assay (Caliper LabChip mobility shift), MNK2; type: biochemical; settings: enzymatic; 250 μM ATP
T1 construct: GST (cleaved yes); made in house; host or cells: E. coli
T1 sequence (Q9HBH9 84-388 limits assumed): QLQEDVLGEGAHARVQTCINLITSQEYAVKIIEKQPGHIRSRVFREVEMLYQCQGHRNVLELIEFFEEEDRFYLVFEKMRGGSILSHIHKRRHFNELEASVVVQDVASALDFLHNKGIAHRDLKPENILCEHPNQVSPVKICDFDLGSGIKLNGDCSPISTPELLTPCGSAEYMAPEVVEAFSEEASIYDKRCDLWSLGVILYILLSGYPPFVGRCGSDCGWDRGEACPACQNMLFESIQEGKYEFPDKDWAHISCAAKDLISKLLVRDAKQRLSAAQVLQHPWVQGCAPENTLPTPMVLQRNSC
Description: (§2) MNK1 and MNK2 inhibitor activity was determined using recombinant kinase domains expressed in E. coli. MNK1 and MNK2 were expressed as GST fusion proteins and the GST tag was removed using PreScission protease. After concentration to 10-15 mg/ml the proteins were flash frozen in liquid nitrogen and stored at −80° C.
(§3) This reaction mixture was then used immediately for the activation of the MNKs. The activation of the MNK1 was performed by incubating 5.0 μM of MNK1 with 0.3 μM of activated ERK2 and 500 μM ATP at 30° C. for 6 hours. The activation of MNK2 was performed by incubating 50 μM of MNK2 with 3.0 μM of activated ERK2 and 500 μM ATP at 30° C. for 2 hours. The activated MNKs were stored at −20° C. until required for assay.
(§4) Kinase assays were performed on the Caliper Life Sciences (Mountain View, Calif.) Microfluidics LabChip® Platform. Enzyme activity is analyzed by ‘sipping’ reactions from a microtitre plate into LabChip. The data signature is generated by the shift in mobility of non-phosphorylated peptide substrates and phosphorylated products by electrophoresis in the chip and detected by LED induced fluorescence. […] The data is analyzed by calculating the relative heights of the substrate and product peaks and the product/(product+substrate) peak ratio is reported.
(§5) The following buffers were used to assay kinase activity:
(§6) Reconstitution buffer: 10 mM HEPES/NaOH pH7.5, 0.003% Brij® L23, 0.004% TWEEN® 20.
(§7) Separation buffer: 100 mM HEPES/NaOH pH7.3, 0.02% Brij® L23, 5% DMSO, 0.1% CR3, 1 mM EDTA pH8.0.
(§8) The reaction was stopped by the addition of […] termination buffer.
(§9) Inhibition constants (IC50) were determined by plotting kinase activity versus log compound concentration and fitting with a non-linear regression algorithm using GraphPad Prism (GraphPad Software Inc.).

MNK1 = target: T2, MNK1 (Homo sapiens, UniProt Q9BUB5); experiment: In vitro MNK kinase assay (Caliper LabChip mobility shift), MNK1; type: biochemical; settings: enzymatic; 1.2 mM ATP
T2 construct: recombinant kinase domains expressed in E. coli; fused on or other part: N-terminal GST tag, removed with PreScission protease before the test
T2 sequence (Q9BUB5 1-424 isoform Q9BUB5-2): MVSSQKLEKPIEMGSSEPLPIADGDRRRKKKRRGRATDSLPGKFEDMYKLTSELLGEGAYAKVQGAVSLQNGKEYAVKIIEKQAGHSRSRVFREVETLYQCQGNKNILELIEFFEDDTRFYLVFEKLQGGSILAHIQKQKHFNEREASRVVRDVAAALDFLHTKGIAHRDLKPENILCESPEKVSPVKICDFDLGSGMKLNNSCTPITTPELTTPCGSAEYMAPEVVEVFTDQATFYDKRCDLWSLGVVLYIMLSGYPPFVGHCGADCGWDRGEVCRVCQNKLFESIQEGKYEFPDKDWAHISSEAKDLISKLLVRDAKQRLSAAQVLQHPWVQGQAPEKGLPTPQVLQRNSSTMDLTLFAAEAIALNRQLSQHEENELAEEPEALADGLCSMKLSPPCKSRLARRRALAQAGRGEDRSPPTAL
Description: as §2, §3, §4, §5, §6, §7, §8, §9

[4] = tested on: K562 cells (myelogenous leukemia) over-expressing eIF4E; experiment: Cell cytotoxicity assay (CellTiter-Glo), K562; type: cell-based; settings: for IC50: Homo sapiens, cell viability; for change of IC50 when treatment duration was extended from 48 hours to 6 days, K562: K562 cells over-expressing eIF4E
Description: (§10) Cancer cell lines, MV-4-11 (leukemia), P116.c139 (acute T cell leukemia) and D1.1 (acute T cell leukemia), were purchased from ATCC and cultured according to supplier's recommendations. K562 cells (myelogenous leukemia) over-expressing eIF4E, were also used for the cytotoxicity assay. For cells treated for 48 hours, 5000 cells were seeded in 70 μl of growth medium in black, flat-bottom 96-well plate. For cells treated for six days, 1000 cells were seeded in 70 μl of growth medium in black, flat-bottom 96-well plate. […] 50 μl of the diluted compounds was added to the cells and incubated at 37° C. in 5% CO2. After 48 hours or six days treatment, cell viability was determined by CellTiter-Glo Luminescent Cell Viability Assay (Promega, Madison, Wis.). 120 μl of the reagent was added to the cells and luminescence was measured using Tecan Safire Reader. Data was analysed with Graphpad Prism software and the figures represented indicate the half maximal inhibitory concentration (IC50). Error bars denote standard deviation (SD).

[5] = tested on: D1.1 (acute T cell leukemia); experiment: Cell cytotoxicity assay (CellTiter-Glo), D1.1; type: cell-based; settings: for IC50: T-cell, cell viability
Description: as §10

[6] = tested on: P116.c139 (acute T cell leukemia); experiment: Cell cytotoxicity assay (CellTiter-Glo), P116.c139; type: cell-based; settings: for IC50: T-cell, cell viability
Description: as §10

MV-4-11 (leukemia) = experiment: Cell cytotoxicity assay (CellTiter-Glo), MV-4-11; type: cell-based; settings: Homo sapiens, cell viability
Description: as §10

[7] = tested on: eIF4E phosphorylation in BC GMPs; settings: background; cited from earlier work
[8] = tested on: CD34+BC cells (including those carrying T315I mutation); settings: background; cited from earlier work
[9] = tested on: active nuclear beta-catenin in BC GMPs; settings: background; cited from earlier work
[10] = eIF4E Ser209 phosphorylation, Hela cells, 2 hours
[11] = K562, 144 h, 6 days, read-out: IC50 after 6 days of treatment, K562
[12] = K562, 48 hours, read-out: IC50 after 48 hours of treatment, K562
[13] = 144 h, 6 days, read-out: IC50 after 6 days of treatment, D1.1
[14] = 48 hours, read-out: IC50 after 48 hours of treatment, D1.1
[15] = 144 h, 6 days, read-out: IC50 after 6 days of treatment, P116.c139
[16] = 48 hours, read-out: IC50 after 48 hours of treatment, P116.c139
[17] = MV4-11, 144 h, 6 days, read-out: IC50 after 6 days of treatment, MV-4-11
[18] = MV4-11, 48 hours, read-out: IC50 after 48 hours of treatment, MV-4-11

CN1CCN(C(=O)c2ccc(-c3cn4c(-c5ccc(O)cc5)cnc4cn3)cc2)CC1 [Example 1, (4-(3-(4-hydroxyphenyl)imidazo[1,2-a]pyrazin-6-l)phenyl)(4-methylpiperazin-1-yl)methanone]
eIF4E phosphorylation in BC-CML primary cells, immunofluorescence [1]: prevent eIF4E phosphorylation
eIF4E phosphorylation in K562 (BC-CML cell line), Western blot [2]: prevent eIF4E phosphorylation
serial replating efficiency of CD34+ BC cells compared to DMSO (CD34+ BC cells): retards the serial replating efficiency
IC50 [3, 10]: < 1 µM

O=C(c1ccc(-c2cn3c(-c4ccc(O)cc4)cnc3cn2)cc1)N1CCOCC1 [Example 2, (4-(3-(4-hydroxyphenyl)imidazo[1,2-a]pyrazin-6-yl)phenyl)(morpholino)methanone]
eIF4E phosphorylation in BC-CML primary cells, immunofluorescence [1]: prevent eIF4E phosphorylation
eIF4E phosphorylation in K562 (BC-CML cell line), Western blot [2]: prevent eIF4E phosphorylation
ability of BC cells to serial replate (CD34+ BC cells; at 10.0 μM and 20.0 μM): potently impaired the ability of BC cells to serial replate
serial replating efficiency of CD34+ BC cells compared to DMSO (CD34+ BC cells): retards serial replating efficiency
IC50 [3, 10]: < 1 µM

CN1CCN(C(=O)c2ccc(-c3cn4c(-c5ccc(C#N)cc5)cnc4cn3)cc2)CC1 [Example 6, 4-(6-(4-(4-methylpiperazine-1-carbonyl)phenyl)imidazo[1,2-a]pyrazin-3-yl)benzonitrile]
eIF4E phosphorylation in BC-CML primary cells, immunofluorescence [1]: prevent eIF4E phosphorylation
eIF4E phosphorylation in K562 (BC-CML cell line), Western blot [2]: prevent eIF4E phosphorylation
IC50 ([3]; HeLa, 2 h): < 1 µM

Cc1cc(-c2cn3c(-c4ccc(C#N)cc4)cnc3cn2)ccc1C(=O)N1CCC(N)CC1 [Example 27, 4-(6-(4-(4-aminopiperidine-1-carbonyl)-3-methylphenyl)imidazo [1,2-a]pyrazin-3-yl)benzonitrile]
IC50 (MNK2): < 0.1 µM
IC50 (MNK1): < 0.1 µM
IC50 [3, 10]: < 1 µM

CC(=O)NC1CCN(C(=O)c2ccc(-c3cn4c(-c5ccc(Cl)cc5)cnc4cn3)cc2)CC1 [Example 49]
IC50 (MNK2): < 1 µM
IC50 (MNK1): < 1 µM
IC50 [3, 10]: < 1 µM

CC(=O)Nc1cc(-c2ccc3ncc(-c4ccc(C#N)cc4)n3n2)ccc1C(=O)N1CCOCC1 [Example 80, N-(5-(3-(4-cyanophenyl)imidazo[1,2-b]pyridazin-6-yl)-2-(morpholine-4-carbonyl)phenyl)acetamide]
IC50 (MNK2): < 0.1 µM
IC50 (MNK1): < 0.1 µM
IC50 [3, 10]: < 1 µM

N#Cc1ccc(-c2cnc3ccc(-c4ccc(C(=O)N5CCN(c6ccncc6)CC5)cc4)cn23)cc1 [Example 125, 4-(6-(4-(4-(pyridin-4-yl)piperazine-1-carbonyl)phenyl)imidazo[1,2-a]pyridin-3-yl)benzonitrile]
IC50 (MNK2): < 0.1 µM
IC50 (MNK1): < 0.1 µM
IC50 [3, 10]: < 1 µM

CN1CCN(C2CCN(C(=O)c3ccc(-c4ccc5ncc(-c6ccc(C#N)cc6)n5c4)cc3)CC2)CC1 [Example 133, 4-(6-(4-(4-(4-methylpiperazin-1-yl)piperidine-1-carbonyl)phenyl)imidazo[1,2-a]pyridin-3-yl)benzonitrile]
IC50 [4, 11]: 16 µM
IC50 [4, 12]: 23 µM
change of IC50 when treatment duration was extended from 48 hours to 6 days, K562 [4]: not influenced by the treatment duration
IC50 [3, 10]: < 1 µM
change of IC50 when treatment duration was extended from 48 hours to 6 days, D1.1 [5]: not influenced by the treatment duration
IC50 [5, 13]: 11.2 µM
IC50 [5, 14]: 15.8 µM
change of IC50 when treatment duration was extended from 48 hours to 6 days, P116.c139 [6]: decrease the IC50 by more than half-fold
IC50 [6, 15]: 4 µM
IC50 [6, 16]: 10.9 µM
IC50 (MV-4-11 (leukemia); [17]): 1.5 µM
IC50 (MV-4-11 (leukemia); [18]): 2.8 µM

CN1CCN(C(=O)c2ccc(-c3ccc4ncc(-c5ccc(O)cc5)n4c3)cc2)CC1 [Example 175, (4-(3-(4-hydroxyphenyl)imidazo[1,2-a]pyridin-6-yl)phenyl)(4-methylpiperazin-1-yl)methanone]
IC50 [4, 11]: 21.2 µM
IC50 [4, 12]: 18.2 µM
change of IC50 when treatment duration was extended from 48 hours to 6 days, K562 [4]: not influenced by the treatment duration
change of IC50 when treatment duration was extended from 48 hours to 6 days, D1.1 [5]: not influenced by the treatment duration
IC50 [5, 13]: 10.1 µM
IC50 [5, 14]: 12.3 µM
change of IC50 when treatment duration was extended from 48 hours to 6 days, P116.c139 [6]: decrease the IC50 by more than half-fold
IC50 [6, 15]: 5.7 µM
IC50 [6, 16]: 12.5 µM
IC50 (MV-4-11 (leukemia); [17]): 0.3 µM
IC50 (MV-4-11 (leukemia); [18]): 0.9 µM

Cc1ccc(NC(=O)c2ccc(CN3CCN(C)CC3)cc2)cc1Nc1nccc(-c2cccnc2)n1 [imatinib]
eIF4E phosphorylation in BC GMPs [7]: not
ability of CD34+ BC cells to serially replate for more than 8 weeks in methylcellulose [8]: only partially impaired
accumulation of active nuclear beta-catenin in BC GMPs [9]: not
